PMC12396291, “DNA-encoded library screening uncovers potent DNMT2 inhibitors targeting a cryptic allosteric binding site” (iScience, 2025)
“Also recorded” adds a separate entry of the source.

Target: T1, DNMT2 (Homo sapiens, UniProt O14717)
T1 construct: Recombinant human DNMT2 (full-length); His-tag; made in house; host or cells: E. coli
T1 sequence (O14717 1-391): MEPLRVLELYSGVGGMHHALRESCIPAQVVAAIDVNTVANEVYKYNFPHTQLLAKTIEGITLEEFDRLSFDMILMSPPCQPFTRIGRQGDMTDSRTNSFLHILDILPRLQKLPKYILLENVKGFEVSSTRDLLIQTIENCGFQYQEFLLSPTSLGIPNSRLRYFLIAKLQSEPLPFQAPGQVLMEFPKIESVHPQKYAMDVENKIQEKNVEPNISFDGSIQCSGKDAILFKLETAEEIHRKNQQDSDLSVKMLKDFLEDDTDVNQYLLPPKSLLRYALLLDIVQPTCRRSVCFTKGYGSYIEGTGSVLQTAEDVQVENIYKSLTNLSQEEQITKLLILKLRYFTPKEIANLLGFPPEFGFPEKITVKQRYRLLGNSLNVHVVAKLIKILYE
Test: MST displacement assay with fluorescent FTAD probe
Assay type: binding
Design: Fnorm (MST screening): unit not given here
Conditions: ligand 100 μM, FTAD probe
Experimental: Screening for ligand binding and evaluation of dose-response affinity profiles was performed via microscale thermophoresis (MST) as described previously.[42] The measurements were conducted with a Nanotemper Technologies Monolith NT.115 device. All samples were measured in Monolith standard capillaries at 25 °C. The acquisition mode was set to “Nano-Blue” with an excitation power of 30% and a medium MST power, while the system was controlled using the software MO.Control (version 1.6.1) and for evaluation MO.Affinity Analysis (version 2.3) was used. The samples contained 2 μM DNMT2, 100 nM FTAD (5-FAM-triazolyl-adenosyl-Dab) probe, and 1.3% DMSO in MST buffer (50 mM HEPES, 150 mM NaCl, 1 mM dithiothreitol (DTT), 0.1% PEG-8000, 0.05% polysorbate-20, pH 7.4).[42] All compounds were employed at a final concentration of 100 μM for the initial ligand screening.

Row | SMILES | Fnorm (% displ.): FTAD displacement [%] | Fnorm (MST screening)
1 | CCc1ccc(C(=O)NCC2(C(=O)N[C@@H](CC(=O)NCC(=O)O)Cc3c[nH]c4ccccc34)CC2)cc1 [Compound 9] | 46 | 907.7
2 | CCc1ccc(C(=O)NCC2(C(=O)N[C@@H](CC(=O)NCC(=O)N(C)C)Cc3ccccc3)CC2)cc1 [Compound 47] | 36 | 901.0
3 | CCc1ccc(C(=O)NCCC(=O)N[C@@H](CC(=O)NCC(N)=O)Cc2c[nH]c3ccccc23)cc1 [Compound 27] | 5 | 863.8
4 | CCc1ccc(C(=O)NC[C@H](N)C(=O)N[C@@H](CC(=O)NCC(N)=O)Cc2c[nH]c3ccccc23)cc1 [Compound 24] | 4 | 860.8
5 | CCc1ccc(C(=O)NCC2(C(=O)N[C@@H](CC(=O)N[C@@H](C(N)=O)[C@@H](C)O)Cc3c[nH]c4ccccc34)CC2)cc1 [Compound 41] | 6 | 865.3
6 | NC(=O)CNC(=O)C[C@@H](Cc1ccccc1)NC(=O)C1(CNC(=O)c2ccc(C3(C(F)(F)F)N=N3)cc2)CC1 [Compound 20] | 11 | 876.5
7 | CCc1ccc(C(=O)N(C)CC2(C(=O)NC(CC(=O)NCC(N)=O)Cc3ccccc3)CC2)cc1 (stereo not shown) [Compound 44] | 7 | 869.7
8 | CCc1ccc(C(=O)NCC2(C(=O)N[C@@H](CC(=O)N[C@@H](Cc3ccccc3)C(N)=O)Cc3ccccc3)CC2)cc1 [Compound 42] | 4 | 858.8
9 | CCc1ccc(C(=O)NCC2(C(=O)N[C@@H](CC(=O)NCC(N)=O)Cc3ccc(Br)cc3)CC2)cc1 [Compound 17] | 71 | 924.6
10 | CC(=O)NCC1(C(=O)N[C@@H](CC(=O)NCC(N)=O)Cc2ccccc2)CC1 [Compound 23] | 5 | 864.4
11 | CCc1ccc(C(=O)NC[C@H](C)C(=O)N[C@@H](CC(=O)NCC(N)=O)Cc2c[nH]c3ccccc23)cc1 [Compound 25] | 3 | 855.5
12 | CCc1ccc(C(=O)NCC2(C(=O)N[C@@H](CC(=O)NCC(=O)NCCOCCOCCOCCOC)Cc3ccccc3)CC2)cc1 [Compound 48] | 27 | 894.1
13 | CCc1ccc(C(=O)NCC2(C(=O)N[C@H](CC(=O)NCC(N)=O)Cc3c[nH]c4ccccc34)CC2)cc1 [Compound 31] | 4 | 857.0
14 | CCc1ccc(C(=O)NCC2(C(=O)N[C@@H](CC(=O)N(C)CC(N)=O)Cc3ccccc3)CC2)cc1 [Compound 46] | 7 | 868.4
15 | CCc1ccc(C(=O)NCC2(C(=O)N[C@@H](CC(=O)NCCC(N)=O)Cc3ccccc3)CC2)cc1 [Compound 43] | 10 | 874.7
16 | CCc1ccc(C(=O)NC2(C(=O)N[C@@H](CC(=O)NCC(N)=O)Cc3c[nH]c4ccccc34)CC2)cc1 [Compound 26] | 5 | 861.9
17 | CCc1ccc(C(=O)NCC2(C(=O)N[C@@H](CC(=O)NCC(N)=O)Cc3ccc(O)cc3)CC2)cc1 [Compound 15] | 5 | 862.9
18 | CCc1ccc(C(=O)NCC2(C(=O)NCCC(=O)NCC(N)=O)CC2)cc1 [Compound 38] | 4 | 859.4
19 | CCc1ccc(C(=O)NCC2(C(=O)N[C@@H](CC(=O)NCC(N)=O)Cc3ccc4ccccc4c3)CC2)cc1 [Compound 36] | 5 | 861.7
20 | CCc1ccc(C(=O)NCC2(C(=O)N[C@@H](CC(=O)NCC(N)=O)Cc3ccc(I)cc3)CC2)cc1 [Compound 33] | 18 | 885.6
21 | CCc1ccc(C(=O)NCC2(C(=O)N[C@@H](CC(=O)N[C@H](C)C(N)=O)Cc3ccccc3)CC2)cc1 [Compound 40] | 8 | 870.1

Continued, values first:

Row | Fnorm (% displ.): FTAD displacement [%] | Fnorm (MST screening) | SMILES
22 | 8 | 871.4 | CCc1ccc(C(=O)NCC2(C(=O)N[C@@H](CC(=O)N[C@@H](C)C(N)=O)Cc3ccccc3)CC2)cc1 [Compound 39]
23 | 9 | 872.3 | CCc1ccc(C(=O)NCC2(C(=O)N[C@@H](CC(=O)NCC(N)=O)Cc3ccccc3)C[C@H]2S(C)(=O)=O)cc1 (stereo partly shown) [Compound 29]
24 | 5 | 862.6 | CCc1ccc(C(=O)NCC2(C(=O)N(C)[C@@H](CC(=O)NCC(N)=O)Cc3ccccc3)CC2)cc1 [Compound 45]
25 | 23 | 890.4 | CCCc1ccc(C(=O)NCC2(C(=O)N[C@@H](CC(=O)NCC(N)=O)Cc3ccccc3)CC2)cc1 [Compound 12]
26 | 40 | 903.3 | CCc1ccc(C(=O)NCC2(C(=O)N[C@@H](CC(=O)NCC(N)=O)Cc3c[nH]c4ccccc34)CC2)cc1 [Compound 10]
27 | 7 | 868.2 | NC(=O)CNC(=O)C[C@@H](Cc1ccccc1)NC(=O)C1(CNC(=O)c2ccccc2)CC1 [Compound 18]
28 | 3 | 856.7 | CCc1ccc(C(=O)NCC2(C(=O)N[C@@H](CC(=O)NCC(N)=O)Cc3csc4ccccc34)CC2)cc1 [Compound 32]
29 | 4 | 858.6 | CCc1ccc(C(=O)NCC2(C(=O)N[C@@H](CC(=O)NCC(N)=O)C(=O)O)CC2)cc1 [Compound 37]
30 | 24 | 891.2 | Cc1ccc(C(=O)NCC2(C(=O)N[C@@H](CC(=O)NCC(N)=O)Cc3ccccc3)CC2)cc1 [Compound 11]
31 | 5 | 864.4 | NC(=O)CNC(=O)C[C@@H](Cc1ccccc1)NC(=O)C1(CNC(=O)C2CCCCC2)CC1 [Compound 22]
32 | 8 | 871.9 | CCc1ccc(C(=O)NCC2(C(=O)N[C@@H](CC(=O)NCC(N)=O)Cc3ccccc3)C[C@H]2C(F)(F)F)cc1 (stereo partly shown) [Compound 28]
33 | 5 | 862.4 | CCc1ccc(C(=O)NCC2(C(=O)N[C@@H](CC(=O)NCC(N)=O)Cc3ccccc3)CC2)c(C)c1 [Compound 21]
34 | 32 | 897.7 | COc1ccc(C(=O)NCC2(C(=O)N[C@@H](CC(=O)NCC(N)=O)Cc3ccccc3)CC2)cc1 [Compound 13]
35 | 8 | 871.4 | C#Cc1ccc(C(=O)NCC2(C(=O)N[C@@H](CC(=O)NCC(N)=O)Cc3ccccc3)CC2)cc1 [Compound 19]
36 | 5 | 861.5 | CCc1ccc(C(=O)NCC2(C(=O)N3Cc4ccccc4C[C@@H]3CC(=O)NCC(N)=O)CC2)cc1 [Compound 35]

Tested on: not listed separately
Test: Parallel artificial membrane permeation assay (PAMPA)
Assay type: in vitro ADME
Conditions: 7 h incubation, duplicates
Experimental: To determine the passive permeability of selected DNMT2 ligands, a parallel artificial membrane permeation assay (PAMPA) was performed as described previously.[68] The experiment was performed in duplicates with Sigma-Aldrich MAIPNTR10 donor plates with 5 μL of an artificial membrane (1% w/v L-α-phosphatidylcholine in n-dodecane) per well. After incubation for 7 h, the acceptor solutions were evaluated by LC/MS (HP Agilent 1100 Series). The peak areas in the UV chromatogram (λ = 210 nm) were used to calculate the areas under the curve (AUCs).

Row | SMILES | Papp (PAMPA)
37 | CCc1ccc(C(=O)NCC2(C(=O)N[C@@H](CC(=O)NCC(=O)N(C)C)Cc3ccccc3)CC2)cc1 [Compound 47] | failed to pass through the artificial membrane; also recorded: below detection limit
38 | CCc1ccc(C(=O)NCC2(C(=O)N[C@@H](CC(=O)NCC(=O)O)Cc3ccccc3)CC2)cc1 [Compound 54] | failed to pass through the artificial membrane; also recorded: below detection limit
39 | CCc1ccc(C(=O)NCC2(C(=O)N[C@@H](CC(=O)NCC(N)=O)Cc3c[nH]c4ccccc34)CC2)cc1 [Compound 10] | failed to pass through the artificial membrane; also recorded: below detection limit
40 | CCc1ccc(C(=O)NCC2(C(=O)N[C@@H](CC(=O)NCC(N)=O)Cc3ccccc3)CC2)cc1 [Compound 14] | failed to pass through the artificial membrane; also recorded: below detection limit
